According to patent US20190358264A1, “METHODS OF TREATING DISEASES ASSOCIATED WITH ILC2 CELLS” (Limm Therapeutics, SA, priority 2016, published 2019):

Test system: intestinal ILC2s
Assay: Ki67 expression in intestinal ILC2s after in vitro stimulation with NmU23
Type: cell-based, mouse
Conditions: NmU23 100 ng/mL overnight
Protocol: FIGS. 10a-10d: FIG. 10a, Ki67 expression in intestinal ILC2s after an overnight in vitro stimulation with NmU23 alone (100 ng/mL, Phoenix Pharmaceutical) or NmU23 together with the survival cytokines Interleukin (IL)-2 and/or IL-7 (10 ng/mL). FIG. 10b, Ki67 expression in intestine ILC2 after in vivo administration of NmU23 (4 g/day during 2 days). n=5. FIG. 10c, ILC2-derived type 2 cytokines (IL-5, IL-13 and Amphiregulin (Areg)) in sorted intestine ILC2 after an overnight stimulation with NmU23, mouse recombinant IL-25 or IL-33 (R&D) (10, 50 and 100 ng/mL). Negative control: unstimulated ILC2, Positive control: ILC2 activated with phorbol 12-myristate 13-acetate (PMA, 50 ng/ml) plus ionomycin (500 ng/ml). n=3. FIG. 10d, Dot plots representative of the cytokine production with increasing dose of NmU23, rIL-25 and rIL-33. *P<0.05; **P<0.01; ***P<0.001; ****P<0.0001; ns not significant.
For in vitro experiments, purified lung and small intestine lamina propria ILC2s were FBS starved for 2 hours prior to stimulation and cultured in complete RPMI (supplemented with 10% foetal bovine serum (FBS), 1% hepes, sodium pyruvate, glutamine, streptomycin and penicillin) at 37° C. […] For in vivo experiments, B6 mice were injected intraperitoneal with NmU23 peptide (2 g/day) during Nippostrongylus brasiliensis infection or with a single dose of NmU23 (20 μg) and analyzed after 8 hours. […]

recombinant mouse Neuromedin U 23 peptide (FKAEYQSPSVGQSKGYFLFRPRN; listed as Mus musculus) [NmU23, NMUR1 agonist neuropeptide, Phoenix pharmaceuticals]
ILC2 proliferation as measured by Ki67, in vitro: increased ILC2 proliferation
